Assay results taken from patent US20230257383A1, “COMPOUND SERVING AS BTK INHIBITOR, PREPARATION METHOD THEREFOR, AND USE THEREOF” (CHENGDU HYPERWAY PHARMACEUTICALS CO., LTD., priority 2020, published 2023).

Experiments:
[1] = Liver microsome metabolic stability test (human); format: in vitro ADME; details: for microsomal CLint: liver microsomes, read-out: CLint (μL/min/mg) Human
Experimental: (§1) 1: To the sample wells of T0, T5, T10, T20, T30, T60 and NCF60, 10 μL of the test or reference working solution and 80 μL of microsome working solution (hepatic microsome with a protein concentration of 0.5 mg/mL) were added, and to Blank60 well, only the microsome working solution was added. Then samples of the Blank60, T5, T10, T20, T30 and T60 other than TO and NCF60 were placed in a 37° C. water bath and pre-incubated for about 10 min.
(§2) 2: To the TO sample well, 300 μL of stop solution (containing 200 ng/mL tolbutamide and 200 ng/mL labetalol in acetonitrile solution) was added first, followed by 10 μL of NADPH regeneration system working solution.
(§3) 3: After the pre-incubation of Blank60, T5, T10, T20, T30 and T60 incubation plates, 10 μL of NADPH regeneration system working solution was added to each sample well to start the reaction, and 10 μL of 100 mM potassium phosphate buffer was added to the NCF60 sample well.
(§4) 4: After incubation for an appropriate time (such as 5, 10, 20, 30 and 60 min), to each test sample well and control well of the Blank60, T5, T10, T20, T30, T60 and NCF60 plates, 300 μL of stop solution was added to terminate the reaction.
(§5) 5: All sample plates were shaken to mix well and centrifuged at 4000 rpm for 20 min, and 100 μL of the supernatant of the test sample or control sample was taken and diluted with 300 μL of pure water for LC-MS/MS analysis.
(§6) 6: Data analysis: T1/2 and CLint(mic) (μL/min/mg) values were calculated according to the first-order elimination kinetics. The first-order elimination kinetics equation was: […]

[2] = Liver microsome metabolic stability test (rat); format: in vitro ADME; details: for microsomal CLint: liver microsomes, read-out: CLint (μL/min/mg) Rat
Experimental: as §1, §2, §3, §4, §5, §6

| CLint (μL/min/mg) Human [1] [µL/min/mg] | % Remaining (60 min) Human [1] [%] | CLint (μL/min/mg) Rat [2] [µL/min/mg] | % Remaining (60 min) Rat [2] [%] | microsomal CLint [1] [µL/min/mg] | microsomal CLint [2] [µL/min/mg] | SMILES |
| --- | --- | --- | --- | --- | --- | --- |
| <9.6 | 99.9 | 18.2 | 63.7 | – | – | Nc1nccn2c(C3CC[C@@H](CO)OC3)nc(-c3ccc(C(=O)Nc4ccccn4)cc3F)c12 (stereo partly shown) [Example 1-B] |
| – | – | – | – | 38.8 | 122 | COc1cccc(Oc2ccc(-c3nc(C4CCC(CO)OC4)n4ccnc(N)c34)cc2)c1F (stereo not shown) [Example 5] |
| – | – | – | – | 33.9 | 66.5 | Nc1nccn2c(C3CCC(CO)OC3)nc(-c3ccc(Oc4cccc(F)c4F)cc3)c12 (stereo not shown) [Example 8] |
| – | 24.5 | – | 3.2 | 48.4 | 114 | Nc1nccn2c(C3CCC(CO)OC3)nc(-c3ccc(Oc4cccc(Cl)c4F)cc3)c12 (stereo not shown) [Example 9] |
| – | 2.6 | – | 3.0 | 124 | 118 | COc1cccc(Oc2ccc(-c3nc(C4CCC(CO)OC4)n4c(Cl)cnc(N)c34)cc2)c1F (stereo not shown) [Example 12] |
| – | 31.8 | – | 14.6 | 36.9 | 63.9 | Nc1nccn2c(C3CCC(CO)OC3)nc(-c3ccc(Oc4ccccc4)cc3)c12 (stereo not shown) [Example 16] |
| – | – | – | – | 47.1 | 83.1 | Nc1nccn2c(C3CCC(CO)OC3)nc(-c3ccc(Oc4cccc(C(F)(F)F)c4F)cc3)c12 (stereo not shown) [Example 19] |
| – | – | – | – | 74.9 | 255 | Cc1cccc(Oc2ccc(-c3nc(C4CCC(CO)OC4)n4ccnc(N)c34)cc2)c1F (stereo not shown) [Example 24] |
| – | – | – | – | 31.1 | 46.1 | Nc1nccn2c(C3CCC(CO)OC3)nc(-c3ccc(C(=O)c4ccccc4)cc3)c12 (stereo not shown) [Example 26] |
| – | – | – | – | 36.8 | 81.6 | Nc1nccn2c(C3CCC(CO)OC3)nc(-c3ccc(Oc4c(F)cccc4F)cc3)c12 (stereo not shown) [Example 64] |
| – | – | – | – | 13.2 | 30.3 | Cc1ccnc(NC(=O)c2ccc(-c3nc(C4CCC(CO)OC4)n4ccnc(N)c34)cc2)c1 (stereo not shown) [Example 70] |
| – | – | – | – | < 9.6 | 29.8 | COc1cccc(Oc2ccc(-c3nc(C4CCC(CO)OC4)n4ccnc(N)c34)cc2)c1 (stereo not shown) [Example 101] |
| – | – | – | – | 10.9 | 26.1 | Nc1nccn2c(C3CCC(CO)OC3)nc(-c3ccc(C(F)(F)c4ccccc4)cc3)c12 (stereo not shown) [Example 111] |
